The GI50 is the concentration at which growth is held to half of that of the control. For orientation: TGI means the concentration at which net growth stops. Low readings indicate more potent growth arrest, high ones less potent growth arrest.

The source of these data is PubChem BioAssay (NCI).

Several values for one entry are separate records, joined by “and”; a condition that tells them apart may be missing. Equal entries are not always repeated.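 How tested: cells in 96-well plates exposed to compound for 48 hours at five concentrations. Here, GI50 denotes the concentration required for 50% inhibition of growth. TGI: concentration producing complete growth inhibition.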

Among the test systems are COLO 205 colon; DU-145 prostate; HL-60(TB) leukemia; MCF7 breast; NCI-H23 lung; RPMI-8226 leukemia; SK-MEL-28 melanoma; SK-OV-3 ovarian; SN12C renal; U251 CNS.
What all share (assay): DTP human tumour cell line panel, 48 h

Regarding `CC(=O)OC1Oc2cc(C)c(C)cc2-c2oc(=O)c(-c3ccccc3)cc21` (stereo unspecified), the GI50 is 0.385 µM with COLO 205 colon; 0.297 µM in the test on DU-145 prostate; 0.111 µM in the test on HL-60(TB) leukemia; 0.28 µM with MCF7 breast; 0.615 µM with NCI-H23 lung; 0.287 µM in the test on RPMI-8226 leukemia. Further, the GI50 is 0.464 µM with SK-MEL-28 melanoma, 0.407 µM in the test on SK-OV-3 ovarian, 0.487 µM in the test with SN12C renal and 0.44 µM in the test with U251 CNS. Moreover, the TGI was 3.64 µM in the test with COLO 205 colon; 1.2 µM in the test on DU-145 prostate; 0.467 µM with HL-60(TB) leukemia; 27.5 µM in the test with MCF7 breast; greater than 100 µM in the test with NCI-H23 lung; 0.969 µM in the test with RPMI-8226 leukemia. Besides, the TGI in the test on SK-MEL-28 melanoma was 55.6 µM; in the test with SK-OV-3 ovarian it was 37.3 µM; in the test on SN12C renal it was greater than 100 µM; with U251 CNS, 58.8 µM.

`CCOC(=O)/N=c1\ssc(Cl)c1Cl`: the GI50 was 19 µM in the test with COLO 205 colon; 4.72 µM in the test with DU-145 prostate; 6.41 µM in the test with HL-60(TB) leukemia; 3.54 µM in the test on MCF7 breast; 3.25 µM in the test with NCI-H23 lung; 3.52 µM with RPMI-8226 leukemia. In addition, the GI50 with SK-MEL-28 melanoma is 3.9 µM; with SK-OV-3 ovarian, 20.6 µM; in the test on SN12C renal, 6.7 µM; in the test with U251 CNS it was 3.34 µM. Also, the TGI was 44.8 µM in the test with COLO 205 colon; 19.4 µM in the test with DU-145 prostate; greater than 100 µM in the test with HL-60(TB) leukemia; 16.8 µM in the test with MCF7 breast; 11.3 µM in the test on NCI-H23 lung; greater than 100 µM in the test on RPMI-8226 leukemia. The TGI amounted to 27.1 µM in the test on SK-MEL-28 melanoma, 45.6 µM in the test on SK-OV-3 ovarian, 25.8 µM in the test with SN12C renal and 13.8 µM with U251 CNS.

`COc1ccc2nc3cc(Cl)ccc3c(Nc3ccc(O)c(CN4CCCC4)c3)c2c1`: the GI50 in the test with COLO 205 colon is 1.83 µM; in the test on DU-145 prostate it was 2.16 µM; in the test with HL-60(TB) leukemia, 2.18 µM; with MCF7 breast, 1.32 µM; in the test with NCI-H23 lung, 2.22 µM; in the test with RPMI-8226 leukemia, 2.55 µM. Further, the GI50 in the test on SK-MEL-28 melanoma is 1.98 µM; in the test with SK-OV-3 ovarian, 6.21 µM; in the test with SN12C renal, 1.84 µM; in the test on U251 CNS it was 2.15 µM. Moreover, the TGI in the test on COLO 205 colon stood at 3.48 µM; with DU-145 prostate, 4.77 µM; in the test on HL-60(TB) leukemia, 6.08 µM; with MCF7 breast it was 2.87 µM; in the test on NCI-H23 lung it was 7.08 µM; with RPMI-8226 leukemia it was 6.41 µM. The concentration for total growth inhibition (TGI) worked out at 3.46 µM with SK-MEL-28 melanoma, 19 µM in the test with SK-OV-3 ovarian, 4.56 µM with SN12C renal and 4.44 µM with U251 CNS.

Regarding `COc1ccccc1-c1nccc(COc2ccccc2C[C@@H](Oc2ncnc3sc(-c4ccc(F)cc4)c(-c4ccc(OCCN5CCN(C)CC5)c(Cl)c4C)c23)C(=O)O)n1`, the GI50 was 1.86 µM with COLO 205 colon; 5.84 µM in the test on DU-145 prostate; 0.0205 µM with HL-60(TB) leukemia; 0.0786 µM with MCF7 breast; 1.11 µM in the test on NCI-H23 lung; less than 0.0104 µM in the test with RPMI-8226 leukemia. Also, the GI50 in the test with SK-MEL-28 melanoma is 1.76 µM; in the test with SK-OV-3 ovarian, 4.04 µM; in the test with SN12C renal, 1.75 µM; in the test with U251 CNS, 1.88 µM. Besides, the concentration for total growth inhibition (TGI) with COLO 205 colon amounted to 4.33 µM; in the test on DU-145 prostate, 13.9 µM; with HL-60(TB) leukemia, 0.0524 µM; in the test with MCF7 breast it was 1.95 µM; in the test with NCI-H23 lung, 3.84 µM; in the test on RPMI-8226 leukemia it was 0.285 µM. The TGI with SK-MEL-28 melanoma was determined as 3.36 µM; in the test with SK-OV-3 ovarian, 16.5 µM; in the test with SN12C renal, 3.83 µM; in the test on U251 CNS, 4.15 µM.

Turning to `COc1ccc(-c2nn(-c3cccc(Cl)c3)cc2/C=C2\C(=N)N(c3ccccc3)N=C2N)cc1`, the GI50 is 1.83 µM in the test with COLO 205 colon; 1.37 µM in the test with DU-145 prostate; 0.414 µM in the test on HL-60(TB) leukemia; 2.2 µM in the test on MCF7 breast; 4.62 µM in the test with NCI-H23 lung; 0.993 µM in the test on RPMI-8226 leukemia. For the same compound, the GI50 in the test on SK-MEL-28 melanoma was 6.59 µM; with SK-OV-3 ovarian it was 34.7 µM; in the test on SN12C renal, 3.33 µM; in the test with U251 CNS, 3 µM. The concentration for total growth inhibition (TGI) is 3.92 µM in the test on COLO 205 colon; greater than 47.9 µM in the test on DU-145 prostate; 9.24 µM in the test with HL-60(TB) leukemia; 33.5 µM with MCF7 breast; 43.5 µM with NCI-H23 lung; 46.2 µM in the test with RPMI-8226 leukemia. For the same compound, the TGI in the test on SK-MEL-28 melanoma is greater than 100 µM; with SK-OV-3 ovarian, greater than 100 µM; with SN12C renal, greater than 100 µM; in the test on U251 CNS, 35.2 µM.

As to `C=C1C(=O)C23CC1CCC2C12CO[C@@]3(O)[C@@H](O)C1C(C)(C)C=CC2=O` (stereo partly specified), the GI50 with COLO 205 colon is 3.18 µM; with HL-60(TB) leukemia, 0.434 µM; in the test with NCI-H23 lung, 2.9 µM; in the test with SK-MEL-28 melanoma, 1.58 µM; in the test on SK-OV-3 ovarian it was 26.1 µM; with SN12C renal it was 2.03 µM. The GI50 with U251 CNS is 16.7 µM. The TGI with COLO 205 colon was 1.86 µM and 10.1 µM; with DU-145 prostate, 41.3 µM; in the test with MCF7 breast it was 11.6 µM; in the test with NCI-H23 lung it was 1.42 µM and 7.88 µM; in the test with RPMI-8226 leukemia, 21.7 µM; in the test with SK-MEL-28 melanoma it was 1.48 µM and 3.35 µM. The TGI in the test with SK-OV-3 ovarian is 13.7 µM and 54.5 µM; in the test on SN12C renal it was 3.87 µM and 4.05 µM; in the test on U251 CNS, 5.15 µM and 33.3 µM.

`Cc1cc(S(N)(=O)=O)c(S/C(=N\NS(=O)(=O)c2ccccc2)c2ccc(Cl)c(Cl)c2)cc1Cl`: the GI50 in the test on COLO 205 colon is 45.7 µM; with DU-145 prostate it was 54.2 µM; with HL-60(TB) leukemia, 21.7 µM; with MCF7 breast, 30.5 µM; in the test on NCI-H23 lung it was 20.3 µM; in the test with RPMI-8226 leukemia, 28.8 µM. For the same compound, the GI50 with SK-MEL-28 melanoma was 84.1 µM; in the test with SK-OV-3 ovarian it was greater than 100 µM; in the test with SN12C renal, 34.1 µM; in the test with U251 CNS, 28.8 µM. The concentration for total growth inhibition (TGI) is greater than 100 µM in the test on COLO 205 colon; greater than 100 µM in the test with DU-145 prostate; 53.4 µM in the test with HL-60(TB) leukemia; greater than 100 µM with MCF7 breast; 49.9 µM in the test with NCI-H23 lung; greater than 100 µM in the test on RPMI-8226 leukemia. The TGI with SK-MEL-28 melanoma, in the test on SK-OV-3 ovarian, with SN12C renal and in the test with U251 CNS was greater than 100 µM throughout.
